{"source": "patent US8877707B2", "about": "“Inhibitors of HCV NS5A” (Presidio Pharmaceuticals, Inc., priority 2010, dated 2014)"}
{"tested_on": "HCV genotype 1b replicon in Huh 7 cells", "assay": "HCV replicon assay (1b_Huh-Luc/Neo-ET cell line, luciferase readout)", "type": "cell-based", "conditions": "Hepatitis C virus, Huh-7, 72 h, read-out: Inhibition of HCV genotype 1b", "experimental": "(§1) Biological activity of the compounds of the invention was determined using an HCV replicon assay. The 1b_Huh-Luc/Neo-ET cell line persistently expressing a bicistronic genotype 1b replicon in Huh 7 cells was obtained from ReBLikon GMBH. This cell line was used to test compound inhibition using luciferase enzyme activity readout as a measurement of compound inhibition of replicon levels.\n(§2) On Day 1 (the day after plating), each compound is added in triplicate to the cells. Plates incubated for 72 h prior to running the luciferase assay. Enzyme activity was measured using a Bright-Glo Kit (cat. number E2620) manufactured by Promega Corporation. The following equation was used to generate a percent control value for each compound. % Control=(Average Compound Value/Average Control)*100\n(§3) The EC50 value was determined using GraphPad Prism and the following equation: Y=Bottom+(Top−Bottom)/(1+10^((Log IC50−X)*HillSlope))\n(§4) EC50 values of compounds are repeated several times in the replicon assay.", "units": {"EC50": "nM"}}
{"smiles": "CNC(=O)N[C@@H](C(=O)N1CCC[C@H]1c1nc(-c2ccc3cc(-c4ccc(-c5cnc([C@@H]6CCCN6C(=O)[C@@H](NC(=O)OC)C(C)C)[nH]5)cc4)ccc3c2)c[nH]1)c1ccccc1", "note": "[14s]", "EC50": "< 1"}
{"tested_on": "HCV genotype 1b replicon in Huh 7 cells", "assay": "HCV replicon assay (1b_Huh-Luc/Neo-ET cell line, luciferase readout)", "type": "cell-based", "conditions": "Hepatitis C virus; Table 1; genotype 1b replicon, Huh 7 cells, 72 h, luciferase; read-out: Inhibition of HCV genotype 1b", "experimental": "as §1, §2, §3, §4", "units": {"EC50": "nM"}}
{"smiles": "COC(=O)N[C@H](C(=O)N1CCC[C@H]1c1ncc(-c2ccc3nc(-c4ccc5c(c4)CCc4nc([C@@H]6CCCN6C(=O)[C@@H](NC(=O)OC)C(C)C)[nH]c4-5)ccc3c2)[nH]1)C(C)C", "note": "[292-1]", "EC50": "< 1"}
{"smiles": "COC(=O)N[C@H](C(=O)N1CCC[C@H]1c1nc2c([nH]1)-c1ccc(-c3ccc4cc(-c5cnc([C@@H]6CCCN6C(=O)[C@@H](NC(=O)OC)C6CCOCC6)[nH]5)ccc4n3)cc1CC2)C(C)C", "note": "[293-1]", "EC50": "< 1"}
{"smiles": "COC(=O)N[C@H](C(=O)N1CCC[C@H]1c1nc2c([nH]1)-c1ccc(-c3ccc4cc(-c5cnc([C@@H]6CCCN6C(=O)[C@H](NC(=O)OC)c6ccccc6)[nH]5)ccc4n3)cc1CC2)C(C)C", "note": "[294-1]", "EC50": "< 1"}
{"smiles": "COC(=O)N[C@H](C(=O)N1CCC[C@H]1c1nc2c([nH]1)-c1ccc(-c3ccc4cc(-c5cnc([C@@H]6CCCN6C(=O)[C@H](NC(=O)OC6CCOCC6)c6ccccc6)[nH]5)ccc4n3)cc1CC2)C(C)C", "note": "[295-1]", "EC50": "< 1"}
{"smiles": "COC(=O)N[C@H](C(=O)N1CCC[C@H]1c1nc(-c2ccc3cc(-c4ccc(-c5cnc([C@@H]6CCCN6C(=O)[C@@H](NC(=O)OC)C(C)C)[nH]5)cc4)ccc3c2)c[nH]1)C(C)C", "note": "[compound 1]", "EC50": "< 1"}
{"smiles": "COC(=O)N[C@@H](C(=O)N1CCC[C@H]1c1nc(-c2ccc3cc(-c4ccc(-c5cnc([C@@H]6CCCN6C(=O)[C@H](NC(=O)OC)C(C)C)[nH]5)cc4)ccc3c2)c[nH]1)C(C)C", "note": "[compound 2]", "EC50": "1 to 9.9"}
{"smiles": "COC(=O)N[C@H](C(=O)N1CCC[C@H]1c1nc(-c2ccc3cc(-c4ccc(-c5cnc([C@@H]6CCCN6C(=O)[C@@H](NC(=O)OC)[C@@H](C)OC)[nH]5)cc4)ccc3c2)c[nH]1)[C@@H](C)OC", "note": "[compound 3]", "EC50": "< 1"}
{"smiles": "COC(=O)N[C@H](C(=O)N1CCC[C@H]1c1nc(-c2ccc3cc(-c4ccc(-c5cnc([C@@H]6CCCN6C(=O)[C@@H](NC(=O)OC)[C@@H](C)O)[nH]5)cc4)ccc3c2)c[nH]1)[C@@H](C)O", "note": "[compound 4]", "EC50": "< 1"}
{"smiles": "COC(=O)N[C@H](C(=O)N1CCC[C@H]1c1nc(-c2ccc3cc(-c4ccc(-c5cnc([C@@H]6CCCN6C(=O)[C@@H](c6ccccc6)N(C)C)[nH]5)cc4)ccc3c2)c[nH]1)C(C)C", "note": "[compound 5]", "EC50": "< 1"}
{"smiles": "COC(=O)N[C@H](C(=O)N1CCC[C@H]1c1ncc(-c2ccc(-c3ccc4cc(-c5c[nH]c([C@@H]6CCCN6C(=O)[C@@H](c6ccccc6)N(C)C)n5)ccc4c3)cc2)[nH]1)C(C)C", "note": "[compound 6]", "EC50": "< 1"}
{"smiles": "COC(=O)N[C@H](C(=O)N1CCC[C@H]1c1ncc(-c2ccc(-c3ccc4cc(-c5c[nH]c([C@@H]6CCCN6C(=O)[C@H](NC(=O)OC)c6ccccc6)n5)ccc4c3)cc2)[nH]1)C(C)C", "note": "[compound 7]", "EC50": "< 1"}
{"smiles": "COC(=O)N[C@H](C(=O)N1CCC[C@H]1c1nc(-c2ccc3cc(-c4ccc(-c5cnc([C@@H]6CCCN6C(=O)[C@H](NC(=O)OC)c6ccccc6)[nH]5)cc4)ccc3c2)c[nH]1)C(C)C", "note": "[compound 8]", "EC50": "< 1"}
{"smiles": "COC(=O)N[C@H](C(=O)N1CCC[C@H]1c1ncc(-c2ccc(-c3ccc4cc(-c5c[nH]c([C@@H]6CCCN6C(=O)[C@@H](c6ccccc6)N6CCCC6)n5)ccc4c3)cc2)[nH]1)C(C)C", "note": "[compound 9]", "EC50": "< 1"}
{"smiles": "COC(=O)N[C@H](C(=O)N1CCC[C@H]1c1nc(-c2ccc3cc(-c4ccc(-c5cnc([C@@H]6CCCN6C(=O)[C@@H](c6ccccc6)N6CCCC6)[nH]5)cc4)ccc3c2)c[nH]1)C(C)C", "note": "[compound 10]", "EC50": "< 1"}
{"smiles": "COC(=O)N[C@H](C(=O)N1CCC[C@H]1c1nc(-c2ccc3nc(-c4ccc(-c5cnc([C@@H]6CCCN6C(=O)[C@@H](NC(=O)OC)C(C)C)[nH]5)cc4)cnc3c2)c[nH]1)C(C)C", "note": "[compound 11]", "EC50": "< 1"}
{"smiles": "COC(=O)N[C@H](C(=O)N1CCC[C@H]1c1ncc(-c2ccc(-c3cnc4ccc(-c5cnc([C@@H]6CCCN6C(=O)[C@@H](NC(=O)OC)C(C)C)[nH]5)cc4n3)cc2)[nH]1)C(C)C", "note": "[compound 12]", "EC50": "1 to 9.9"}
{"smiles": "COC(=O)N[C@H](C(=O)N1CCC[C@H]1c1nc(-c2ccc3cc(-c4ccc(-c5cnc([C@@H]6CCCN6C(=O)[C@@H](NC(=O)OC)C(C)C)[nH]5)cn4)ccc3c2)c[nH]1)C(C)C", "note": "[compound 13]", "EC50": "< 1"}
{"smiles": "COC(=O)N[C@H](C(=O)N1CCC[C@H]1c1ncc(-c2ccc(-c3ccc4cc(-c5c[nH]c([C@@H]6CCCN6C(=O)[C@H](NC(=O)N6CC[C@H](O)C6)c6ccccc6)n5)ccc4c3)cc2)[nH]1)C(C)C", "note": "[compound 15]", "EC50": "< 1"}
{"smiles": "COC(=O)N[C@H](C(=O)N1CCC[C@H]1c1nc(-c2ccc3cc(-c4ccc(-c5cnc([C@@H]6CCCN6C(=O)[C@H](NC(=O)N6CC[C@H](O)C6)c6ccccc6)[nH]5)cc4)ccc3c2)c[nH]1)C(C)C", "note": "[compound 16]", "EC50": "< 1"}
{"smiles": "COC(=O)N[C@H](C(=O)N1CCC[C@H]1c1nc(-c2ccc3nc(-c4ccc(-c5cnc([C@@H]6CCCN6C(=O)[C@@H](NC(=O)OC)C(C)C)[nH]5)cc4)ncc3c2)c[nH]1)C(C)C", "note": "[compound 17]", "EC50": "< 1"}
{"smiles": "CNC(=O)N[C@@H](C(=O)N1CCC[C@H]1c1ncc(-c2ccc(-c3ccc4cc(-c5c[nH]c([C@@H]6CCCN6C(=O)[C@@H](NC(=O)OC)C(C)C)n5)ccc4c3)cc2)[nH]1)c1ccccc1", "note": "[compound 18]", "EC50": "< 1"}
{"smiles": "COC(=O)N[C@H](C(=O)N1CCC[C@H]1c1nc(-c2cnc3cc(-c4ccc(-c5cnc([C@@H]6CCCN6C(=O)[C@@H](NC(=O)OC)C(C)C)[nH]5)cc4)ccc3c2)c[nH]1)C(C)C", "note": "[compound 19]", "EC50": "< 1"}
{"smiles": "COC(=O)N[C@H](C(=O)N1CCC[C@H]1c1ncc(-c2ccc(-c3cccc4c(-c5cnc([C@@H]6CCCN6C(=O)[C@@H](NC(=O)OC)C(C)C)[nH]5)cccc34)cc2)[nH]1)C(C)C", "note": "[compound 20]", "EC50": "< 1"}
{"smiles": "COC(=O)N[C@H](C(=O)N1CCC[C@H]1c1nc(-c2ccc3cc(-c4ccc(-c5cnc([C@@H]6CCCN6C(=O)[C@@H](NC(=O)OC)C(C)C)[nH]5)cc4)cnc3c2)c[nH]1)C(C)C", "note": "[compound 21]", "EC50": "< 1"}
{"smiles": "COC(=O)N[C@H](C(=O)N1CCC[C@H]1c1nc(-c2ccc3cc(-c4ccc(-c5cnc([C@@H]6CCCN6C(=O)[C@@H](NC(=O)OC)C(C)C)[nH]5)cc4)ncc3c2)c[nH]1)C(C)C", "note": "[compound 22]", "EC50": "< 1"}
{"smiles": "COC(=O)N[C@H](C(=O)N1CCC[C@H]1c1ncc(-c2ccc(-c3ccc4cc(-c5c[nH]c([C@@H]6CCCN6C(=O)[C@H](NC(=O)NC(C)(C)C)c6ccccc6)n5)ccc4c3)cc2)[nH]1)C(C)C", "note": "[compound 23]", "EC50": "< 1"}
{"smiles": "COC(=O)N[C@H](C(=O)N1CCC[C@H]1c1nc(-c2ccc3cc(-c4ccc(-c5cnc([C@@H]6CCCN6C(=O)[C@H](NC(=O)NC6CC6)c6ccccc6)[nH]5)cc4)ccc3c2)c[nH]1)C(C)C", "note": "[compound 24]", "EC50": "< 1"}
{"smiles": "COC(=O)N[C@H](C(=O)N1CCC[C@H]1c1nc(-c2ccc3cc(-c4ccc(-c5cnc([C@@H]6CCCN6C(=O)[C@H](NC(=O)NC(C)(C)C)c6ccccc6)[nH]5)cc4)ccc3c2)c[nH]1)C(C)C", "note": "[compound 25]", "EC50": "< 1"}
{"smiles": "COC(=O)N[C@H](C(=O)N1CCC[C@H]1c1nc(-c2ccc3nc(-c4ccc(-c5cnc([C@@H]6CCCN6C(=O)[C@H](NC(=O)OC)c6ccccc6)[nH]5)cc4)ccc3c2)c[nH]1)C(C)C", "note": "[compound 26]", "EC50": "< 1"}
{"smiles": "CCNC(=O)N[C@@H](C(=O)N1CCC[C@H]1c1ncc(-c2ccc(-c3ccc4cc(-c5c[nH]c([C@@H]6CCCN6C(=O)[C@@H](NC(=O)OC)C(C)C)n5)ccc4c3)cc2)[nH]1)c1ccccc1", "note": "[compound 27]", "EC50": "< 1"}
{"smiles": "CCNC(=O)N[C@@H](C(=O)N1CCC[C@H]1c1nc(-c2ccc3cc(-c4ccc(-c5cnc([C@@H]6CCCN6C(=O)[C@@H](NC(=O)OC)C(C)C)[nH]5)cc4)ccc3c2)c[nH]1)c1ccccc1", "note": "[compound 28]", "EC50": "< 1"}
{"smiles": "COC(=O)N[C@H](C(=O)N1CCC[C@H]1c1ncc(-c2ccc(-c3ccc4cc(-c5c[nH]c([C@@H]6CCCN6C(=O)[C@H](NC(=O)NC6CC6)c6ccccc6)n5)ccc4c3)cc2)[nH]1)C(C)C", "note": "[compound 29]", "EC50": "< 1"}
{"smiles": "COC(=O)N[C@H](C(=O)N1CCC[C@H]1c1nc(-c2ccc3nc(-c4ccc(-c5cnc([C@@H]6CCCN6C(=O)[C@H](NC(=O)OC(C)(C)C)c6ccccc6)[nH]5)cc4)ccc3c2)c[nH]1)C(C)C", "note": "[compound 30]", "EC50": "< 1"}
{"tested_on": "HCV genotype 1b replicon in Huh 7 cells", "assay": "HCV replicon assay (1b_Huh-Luc/Neo-ET cell line, luciferase readout)", "type": "cell-based", "conditions": "Hepatitis C virus; Table 2; genotype 1b replicon, Huh 7 cells, 72 h, luciferase; read-out: Inhibition of HCV genotype 1b", "experimental": "as §1, §2, §3, §4", "units": {"EC50": "nM"}}
{"smiles": "COC[C@H](NC(=O)OC)C(=O)N1CCOC[C@H]1c1ncc(-c2ccc3cc(-c4ccc(-c5cnc([C@@H]6CCCN6C(=O)[C@H](NC(=O)OC)c6ccccc6)[nH]5)cc4)ccc3c2)[nH]1", "note": "[325-1]", "EC50": "< 1"}
{"smiles": "COC(=O)N[C@H](C(=O)N1CCC[C@H]1c1ncc(-c2ccc3cc(-c4ccc(-c5cnc([C@@H]6CCCN6C(=O)[C@H](NC(=O)OC)c6ccsc6)[nH]5)cc4)ccc3c2)[nH]1)[C@@H](C)OC", "note": "[330-1]", "EC50": "< 1"}
{"smiles": "COC(=O)N[C@H](C(=O)N1CCC[C@H]1c1ncc(-c2ccc3cc(-c4ccc(-c5cnc([C@@H]6CCCN6C(=O)[C@H](NC(=O)OC)c6cccs6)[nH]5)cc4)ccc3c2)[nH]1)[C@@H](C)OC", "note": "[331-1]", "EC50": "< 1"}
{"smiles": "COC[C@H](NC(=O)OC)C(=O)N1CCC[C@H]1c1ncc(-c2ccc3cc(-c4ccc5nc([C@@H]6CCCN6C(=O)[C@H](COC)NC(=O)OC)[nH]c5c4)ccc3c2)[nH]1", "note": "[345-1]", "EC50": "< 1"}
{"smiles": "COC[C@H](NC(=O)OC)C(=O)N1CCC[C@H]1c1ncc(-c2ccc3cc(-c4ccc5nc([C@@H]6COCCN6C(=O)[C@H](COC)NC(=O)OC)[nH]c5c4)ccc3c2)[nH]1", "note": "[358-1]", "EC50": "< 1"}
